In ChEMBL document CHEMBL1157089, “Antitrypanosomal cyclic polyketide peroxides from the Australian marine sponge Plakortis sp” (J Nat Prod, 2010):
pIC50: −log10 of the molar value.

Legend:
HEK293 [1] = assay: Cytotoxicity against HEK293 cells after at 83 uM 48 hrs by alamar blue assay; assay type: cell-based; conditions: human, hek293, 48 h
[2] = system: Trypanosoma brucei brucei; assay: Antitrypanosomal activity against Trypanosoma brucei brucei BS427 after 48 hrs by alamar blue assay; assay type: functional, organism-based; conditions: BS427, 48 h
[3] = Selectivity ratio of IC50 for HEK293 cells to IC50 for Trypanosoma brucei brucei BS427; assay type: ADME, cell-based; conditions: human, read-out: Ratio IC50
HEK293 [4] = assay: Cytotoxicity against HEK293 cells after 48 hrs by alamar blue assay; assay type: cell-based; conditions: Homo sapiens, HEK293, 48 h

Structure (SMILES)	Activity (HEK293 [1]) [%]	pIC50 [2]	selectivity ratio [3]	pIC50 (HEK293 [4])
CC[C@H](C[C@H](C)C[C@@]1(CC)C[C@@H](CC)[C@@H](CC(=O)O)OO1)C(=O)O	100	6.03	–	–
C=C1CCC[C@@H]2[C@@H](CC[C@@]3(C)CC[C@H]([C@H](C)C(=O)O)OO3)[C@H](C)CC[C@@]12C [SIGMOSCEPTRELLIN B]	–	6.29	–	–
CC[C@@H](/C=C/C(C)=O)C[C@H](C)C[C@@]1(CC)C[C@@H](CC)[C@@H](CC(=O)O)OO1	–	7.31	105	8.29
